From patent US8318801B2, “Cinnamic compounds and derivatives therefrom for the inhibition of histone deacetylase” (Naturewise Biotech & Medicals Corporation, priority 2009, dated 2012)
Entries after “also recorded” stand apart in the source; their conditions may differ.

How the values were obtained:
[1] = test system: SMN2 protein in fibroblast cells derived from SMA patients; conditions: after 64 hours of treatment; cited from earlier work
[2] = test system: acetyl-Histone H3, acetyl-Histone H4, acetyl-tubulin, p21, CTPS, Gelsolin, Hsp90, acetyl-Hsp90 in Human glioma Hs683 cells; assay: Immunoblotting of histones and HDAC associated proteins; type: cell-based; conditions: Hs683 cells, 1.0, 2.0, 4.0 μg/mL
Protocol: Human glioma Hs683 cells were seeded at 5×10^5 cells in a 60-mm dish or 1×10^6 cells in a 100-mm dish. After 24 hours, Human glioma Hs683 cells were treated with different doses of NBM-C-BCX-OS01, NBM-C-BMX-OS01 (1.0, 2.0, 4.0 μg/mL), and vorinostat (SAHA, 5 μM) for 72 hours. Lysates of Hs683 cells were prepared for the immunoblotting of acetyl-Histone H3 (Cell Signaling Technology, Inc.), acetyl-Histone H4 (Upstate), acetyl-tubulin (Sigma Chemical Co.), p21 (BD Pharmingen Technology, Inc.), CTPS (ABNOVA TAIWAN Corporation), Gelsolin (Sigma Chemical Co.), Hsp90 (Cell Signaling Technology, Inc.), acetyl-Hsp90 (ROCKLAND, Inc.) and actin (Sigma Chemical Co.). Proteins were detected by chemiluminescence (ECL, Amersham). […] SAHA was used as a positive control and β-actin as an internal control (see FIG. 7(b)).

[3] = test system: human breast cancer MDA-MB-231 cells; assay: Inhibition of cancer cell growth and change of morphology; type: cell-based; conditions: MDA-MB-231 cells
Protocol: Their results were counted by a trypan blue exclusion assay (see FIG. 9(f)).
(§1) Five cancer cell lines, Rat C6 giloma cells, Human breast cancer MCF-7 cells, Human glioma Hs683 cells, Human glioblastoma 05-MG cells, and Human lung cancer A549 cells, were cultured in Dulbecco's modified Eagle's medium (DMEM; Gibco) containing 10% fetal bovine serum (FBS) and 1% penicillin/streptomycin, and were kept at 37° C. in a humidified atmosphere of 95% air and 5% CO2. Human breast cancer. MDA-MB-231 cells were cultured in L-15 medium (Gibco) containing 10% fetal bovine serum (FBS), 1% penicillin/streptomycin, and 2 mM glutamine, and were maintained at 37° C. in a humidified atmosphere of 95% air and 0% CO2. For these experiments, the cells were seeded in 6-well plates or a 60-mm dish. After 24 hours, the cells were treated with different concentrations of the various compounds. […] Human glioblastoma 05-MG cells were treated with NBM-C-BCX-OS01 (1.0, 2.0, 4.0 μg/mL) and NBM-C-BMX-OS01 (1.0, 2.0, 4.0 μg/mL) for 72 hours (see FIG. 5(e)). […] The results were counted by a trypan blue exclusion assay (see FIG. 6(b)).

[4] = test system: Human glioma Hs683 cells; assay: Inhibition of cancer cell growth; type: cell-based; conditions: Hs683 cells, 1.25, 2.5, 5.0 μg/mL, 72 hrs (FIG. 5(d))
Protocol: Their results were counted by a trypan blue exclusion assay (see FIG. 8(e)).
as §1

[5] = test system: Human glioblastoma 05-MG cells; assay: Inhibition of cancer cell growth; type: cell-based; conditions: 05-MG cells, 1.0, 2.0, 4.0 μg/mL, 72 hrs (FIG. 5(e))
Protocol: as §1

[6] = test system: Human glioma Hs683 cells; assay: Cell cycle analysis by flow cytometry (propidium iodide); type: cell-based; conditions: Hs683 cells, 1.0, 2.0, 4.0 μg/mL, 72 hrs (FIG. 6(e))
Protocol: Human lung cancer A549 cells, Human glioma Hs683 cells and Human glioblastoma 05-MG cells were seeded 1×10^6 cells in a 100-mm dish. After 24 hours of incubation in DMEM+10% BSA, Human lung cancer A549 cells were treated with NBM-HB-OS01 (2.5, 5.0, 7.5, 10.0 μg/mL) for 24 hours and were treated with NBM-C-BCX-OS01 (2.5, 5.0, 7.5 μg/mL) and NBM-C-BMX-OS01 (2.5, 5, 7.5 μg/mL) for 72 hours. Human glioblastoma 05-MG cells were treated with NBM-C-BCX-OS01 (1.0, 2.0, 4.0 μg/mL) and NBM-C-BMX-OS01 (1.0, 2.0, 4.0 μg/mL) for 72 hours. Human glioma Hs683 cells were treated with NBM-C-BCX-OS01 (1.0, 2.0, 4.0 μg/mL). For cell cycle analysis, cells were fixed in 80% ethanol for 1 hour (or overnight) at −20° C. and then incubated with 2 μg/mL RNase A for 30 minutes at 37° C. Cells were stained with propidium iodide ([…] PI) in PBS and analyzed using a Becton Dickinson flow cytometer, BD FACScan and CellQuest acquisition and analysis programs. […] Human glioma Hs683 cells were treated with NBM-C-BCX-OS01 (1.0, 2.0, 4.0 μg/mL) for 72 hours.

[7] = test system: Human lung cancer A549 cells; assay: Inhibition of cancer cell growth; type: cell-based; conditions: 72 hrs, NBM-C-BX-OS01 7.5, others 2.5, 5.0, 7.5 μg/mL (FIG. 5(b))
Protocol: (§2) Three cancer cell lines, Rat C6 giloma cells, Human breast cancer MCF-7 cells, and Human lung cancer A549 cells, were cultured in Dulbecco's modified Eagle's medium (DMEM; Gibco) containing 10% fetal bovine serum (FBS) and 1% penicillin/streptomycin. All three cell lines were maintained at 37° C. in a humidified atmosphere of 95% air and 5% CO2. For the experiments, the cells were seeded in 6-well plates. After 24 hours, the cells were treated with different concentrations of the various compounds.
as §1

[8] = test system: Rat C6 glioma cells; assay: Inhibition of cancer cell growth and change of morphology; type: cell-based; conditions: Rat C6 glioma cells
Protocol: as §2, §1

[9] = test system: cyclin D1 in MCF-7 breast cancer cells; conditions: cited from earlier work
[10] = test system: transgenic mouse model of spinal and bulbar muscular atrophy; conditions: cited from earlier work

In the case of CN(C)c1ccc(C(=O)NCCCCCCC(=O)NO)cc1 [M344], the “up-regulation of SMN2 protein expression” value [1] is given as “up to 7 fold”.

With COc1ccc(/C=C\C(=O)NO)c(OCc2ccc(Cl)cc2)c1CC=C(C)C [NBM-C-BCX-OS01, (Z)-2-(4-Chlorobenzoxy)-3-prenyl-4-methoxy-N-hydroxycinamide] the CTPS protein level ([2]; 72 hrs (FIG. 7(a))) was “decreased in a dose-dependent manner”, the Hsp90 protein level ([2]; 72 hrs (FIG. 7(a))) was “decreased in a dose-dependent manner” and the “induction (increase) of acetylated Hsp90 protein” value ([2]; 72 hrs (FIG. 7(a))) was “detected in a dose-dependent manner; also recorded: observed in a dose-dependent manner”. For the same compound, the “induction (increase) of gelsolin protein” value ([2]; 72 hrs (FIG. 7(a))) was “detected in a dose-dependent manner; also recorded: observed in a dose-dependent manner”, the “expression of acetylated Histone H3” value ([2]; 72 hrs (FIG. 7(b))) was “significantly increased in a dose-dependent manner; also recorded: induced in a dose-dependent manner” and the “expression of acetylated Histone H4” value ([2]; 72 hrs (FIG. 7(b))) was “significantly increased in a dose-dependent manner; also recorded: induced in a dose-dependent manner”. The “expression of acetylated tubulin” value ([2]; 72 hrs (FIG. 7(b))) was “significantly increased in a dose-dependent manner; also recorded: induced in a dose-dependent manner”, the “expression of p21” value ([2]; 72 hrs (FIG. 7(b))) was “significantly increased in a dose-dependent manner; also recorded: induced in a dose-dependent manner” and the “change of cell morphology” value ([3]; 72 hours (FIG. 6(a))) was “changed the morphology of the cells”. The “inhibition of cell growth” value ([3]; various concentrations, 72 hrs (FIG. 6(a))) was “inhibition of the cell growth of human breast cancer MDA-MB-231 cells was observed; also recorded: inhibited the growth”, the cell growth inhibition [4] was “Cell growth inhibition was observed” and the cell growth inhibition [5] was “Cell growth inhibition was observed”. The “growth arrest in cell cycle analysis” value [6] was “arrested the growth; also recorded: could arrest the growth”, the cell growth inhibition [7] was “induced A549 cells growth inhibition in a dose-dependent manner; also recorded: induced A549 cell growth inhibition in dose-dependent amounts” and the “inhibition of cell growth” value ([8]; 24 hrs, NBM-C-BA-OS01 5 μg/mL, others 2.5, 5.0 μg/mL (FIG. 5(a))) was “inhibited the cell growth”. For the same compound, the “inhibition of cell growth, similar to dose-dependent A549 result” value ([8]; various concentrations, 24 hrs (FIG. 5(c))) was “the results were similar”.

In the case of CC(/C=C/C(=O)NO)=C\[C@@H](C)C(=O)c1ccc(N(C)C)cc1 [Trichostatin A], the “ubiquitin-dependent cyclin D1 degradation” value [9] is listed as “induce ubiquitin-dependent cyclin D1 degradation”.

For CCCC(=O)[O-].[Na+] [sodium butyrate], the “effect on phenotypic expression” value [10] is given as “ameliorates phenotypic expression”.
